Laboratory results taken from patent publication US20040039060A1, “Inhibitor for enzyme having two divalent metal ions as active centers” (priority 2000, published 2004).
Where two headings read alike, the source gives them in different places.

Columns and labels:
HIV-1 integrase = HIV-1 integrase (Human immunodeficiency virus type 1 group M subtype B, UniProt P04585); assay: HIV-1 integrase inhibition assay (microtiter plate, immobilised substrate DNA, Dig-labelled target DNA, OD 405 nm); format: biochemical
Protocol: Substrate DNA and target DNA, which sequences were indicated below, were synthesized by Amersham Pharmacia Biotech and dissolved in KTE buffer (composition: 100 mM KCl, 1 mM EDTA, 10 mM Tris-HCl (pH 7.6)) at concentration of 2 pmol/μl and 5 pmol/μl, respectively. The DNA solutions were annealed with each complement by slowly cooling after heating.
Streptavidin, obtained from Vector Laboratories, was dissolved in 0.1 M carbonate buffer (composition: 90 mM Na2CO3, 10 mM NaHCO3) at concentration of 40 μg/ml. After coating each well of microtiter plates (obtained from NUNC) with 50 μl of the above solution at 4° C. overnight, each well was washed twice with PBS (composition: 13.7 mM NaCl, 0.27 mM KCl, 0.43 mM Na2HPO4, 0.14 mM KH2PO4) and blocked with 300 μl of 1% skim milk in PBS for 30 min. Additionally, each well was washed twice with PBS and added 50 μl of substrate DNA solution (2 pmol/μl). The microtiter plates were kept at room temperature for 30 min. Then, each well was washed twice with PBS and once with H2O.
Subsequently, in the each well prepared above were added 45 μl of the reaction buffer prepared from 12 μl of the buffer (composition: 150 mM MOPS (pH 7.2), 75 mM MnCl2, 50 mM 2-mercaptoethanol, 25% glycerol, 500 μg/ml bovine serum albumin-fraction V), 1 μl of target DNA (5 pmol/μl), and 32 μl of the distilled water. Additionally, 6 μl of either a test compound in DMSO or DMSO for positive control(PC) was mixed with the above reaction buffer, then 9 μl of an integrase solution (30 pmol) was added and mixed well. In the well of negative control (NC) was added 9 μl of the integrase dilution buffer (composition: 20 mM MOPS (pH7.2), 400 mM potassium glutamate, 1 mM EDTA, 0.1% NP-40, 20% glycerol, 1 mM DTT, 4M urea).
The microtiter plates were incubated at 30° C. for 1 hour. The reaction solution was removed and each well was washed twice with PBS. Subsequently, each well of the microtiter plates was filled with 100 μl of anti-digoxigenin antibody labeled with alkaline phosphatase (Sheep Fab fragment: obtained from Boehringer) and incubated at 30° C. for 1 hour. Then, each well was washed twice with 0.05% Tween20 in PBS and once with PBS. Next, 150 μl of the Alkaline phosphatase reaction buffer (composition: 10 mM p-Nitrophenylphosphate (obtained from Vector Laboratories), 5 mM MgCl2, 100 mM NaCl, 100 mM Tris-HCl (pH 9.5)) was added in each well. […] The optical density (OD) at 405 nm of each well was measured and the percent inhibition was determined by the following expression.
The percent inhibition (%)=100[1-{(C abs.−NC abs.)/(PC abs.−NC abs.)}]
When the percent inhibition (%) is X % at the concentration of x μg/ml and the percent inhibition (%) is Y % at the concentration of y μg/ml, one of which is more than 50% and the other is less than 50%, IC50 can be determined by the following expression.
IC50(μg/ml)=x-{(X-50)(x-y)/(X-Y)}
Compound No. in the Table 1 is the same as compound No. of the above example.

[1] = UV spectrum measurement with stepwise addition of Mg2+ solution (chelate formation); format: physicochemical; settings: compound 0.05 mmol/l, Mg2+ 0 to 3.6 mol/l, 240 nm to 500 nm, cell length 1 cm
Protocol: Compounds C-1, D-2, D-5 and D-6 were employed to determine UV spectra with treating dropwise with metal solutions.
The UV spectrum measurement was conducted with the cell length of 1 cm at a wavelength of 240 nm to 500 nm. Each test solution was obtained by preparing Solutions A^1, A2, B and C as shown below, adding an indicated volume of Solution A^1 or A2 to 1 ml of Solution B, making the total, volume 10 ml with Solution C. The concentrations of Compounds C-1, D-2, D-5 and D-6 in test solutions here were all adjusted at 0.05 mmol/l, and the concentrations of Mg^2+ were as indicated in Table 5.
Solution A1: MgCl2 4 mol/l, MOPS 50 mmol/l, NaOH 23.6 mmol/l, Solvent: Water
Solution A2: MgCl2 1 mol/l, MOPS 50 mmol/l, NaOH 23.6 mmol/l, Solvent: Water
Solution B: Compound 1 0.5 mmol/l, Solvent: DMSO
Solution C: NaCl 3 mol/l, MOPS 50 mmol/l, 23.6 mmol/l, Solvent: Water
For the purpose of indicating the change in the UV spectrum as a result of the increase in the metal ion concentration, one figure contained each UV spectrum curve at various metal ion concentrations.

[2] = UV spectrum measurement with monovalent ions Na+ and K+; format: physicochemical
[3] = concentration of the compound at percent inhibition 50%, MnCl2 buffer, 30° C., 1 hour

Row | SMILES | IC50 (HIV-1 integrase; [3]) | change in the UV spectrum curve as the metal ion concentration was increased [1] | IC50 (HIV-1 integrase) | change in the UV spectrum curve [2]
1 | O=C(O)/C=C/c1cc(CCc2ccccc2)ncn1 [Compound D-2] | >100 µg/mL | no change | – | –
2 | OC(=Cc1cc(CCc2ccccc2)ncn1)c1ccccc1 [Compound D-6] | – | 1-step change | > 331 µM | –
3 | O=C(O)/C(O)=C/c1cc(CCc2ccccc2)ncn1 [Compound C-1] | – | 2-step change | 5.55 µM | almost no change
4 | O=C(O)C(O)=Cc1ccnc(CCc2ccccc2)c1 [Compound D-5] | >100 µg/mL | 1-step change | – | –
